Here are results for 1 molecule from patent US6096725A, “Methods of using αGal oligosaccharides as immune system targeting agents” (Neose Technologies, Inc., priority 1997, dated 2000).

Read-outs that look alike come from different tables or passages of the source.

Series [1] concerns hyperacute rejection (HAR) of porcine heart xenografted to the neck of a baboon. The class given is in vivo. The settings on record: for Onset of IgG, IgM and complement (C3) deposition at the endothelial surface: immunofluorescence. An excerpt: Primate model for testing and application of αGal oligosaccharides and dosages thereof. Due to the many similarities between human and baboon immune systems (Neubauer et al., 1981, J. Immunogenetics, 8:433-442; Garver et al., 1980, Cytogenetics & Cell Genetics, 27:238-245; Brodsky et al., 1982, Immunogenetics, 155:151-166; Hammer, C., in Hardy, M. A. (ed.), Xenograft 25, 115-123 (Elsevier, N.Y., 1989); Stark, J. H., et al., Transplantation, 30 52(6):1072-1078 (December 1991); Hammer, C., in Cooper, D. K. C., et al. (eds.), Xenotransplantation, 429-438 (Springer-Verlag 1991)), and because of the large size of baboons, these animals are convenient experimental model recipients of pig organs. These non-human primates also express anti-pig antibodies, and reject pig organs hyperacutely (Lexer et al., 1986, J. Heart Transplant, 4:411-418; Ye, Y., Cooper, D. K. C., in Cooper, D. K. C., et al. (eds.), Xenotransplantation,389-393 (Springer-Verlag 1991); Cooper et al., 1991, J. Heart Transplant, 7:238-246, 1988; Platt et al., 1991, Transplantation, 52(2):214-220). A normal porcine heart was transplanted into the neck of a normal baboon. αGal pentasaccharide was infused (i.v.) to establish and maintain blood oligosaccharide levels predicted to inhibit HAR until infusate was exhausted (See Table 2). The ability of i.v. infused αGal pentasaccharide to block hyperacute rejection (HAR) of porcine heart xenografted to the neck of a baboon was determined and blood levels of αGal oligosaccharide, anti-αGal antibodies, and serum or plasma cytotoxicity toward pig kidney and mouse endothelial cells was monitored and correlated with the onset of HAR.
The heart was excised from the pig donor and transplanted in the neck of the baboon recipient using techniques essentially as described by Cooper et al., 1993, Transplantation, 56:769-777.
The two xenotransplant baboons were outfitted with an indwelling catheter to the femoral vein to infuse compound and a catheter to the femoral artery for blood sampling. Following the transplant procedure, but just prior to providing circulatory access to the xenograft, the oligosaccharide was administered by i.v. pump through the catheter in a 15 min loading dose, followed by continuous 4 hour infusion to achieve 2.5 mM blood concentration (as determined by calculations presented in Table 2). […] Blood specimens collected for plasma were immediately centrifuged and the plasma withdrawn and stored frozen at -20° C. Blood specimens collected for serum were clotted at 4° C. overnight and the withdrawn serum frozen at -20° C. The αGal pentasaccharide was prepared according to the enzymatic methods set forth in example 6.2 and stored as a dry, white, solid powder. The oligosaccharide was dissolved in 250 mL sterile infusion grade saline to a concentration of 0.154 g/mL, or 177 mM. Induction anesthesia was with ketamine hydrochloride 5 mg/kg/body weight in and 0.5 mg/kg of xylazine iv. Intravenous fluid of approximately 20 ml/kg body weight was given during the course of the operative procedure through either a peripheral or central vein. Atropine 0.5 mg/kg was given iv. The larynx was sprayed with 2% lidocaine. Endotracheal intubation was carried out. The endotracheal tube was taped to the maxilla. The pig or baboon was ventilated with a Harvard positive pressure ventilator. Anesthesia was maintained with nitrous oxide 2 L/min and oxygen 1 L/min and 0.2%-1.2% halothane, at a respiratory rate of approximately 10 to 20 breaths per minute depending on the size of the animal. Tidal volume (approximately 20-24 ml/kg) was also adjusted to suit the size of the animal, and the ventilatory pressure was adjusted to approximately […]. Blood gases were checked, and ventilation adjusted as necessary. Arterial pressure was monitored in the recipient baboon by intermittent automatic cuff recordings. […]

The nature of series [2]: Pharmacokinetics after 15 minute intravenous bolus in baboons. Type of series: in vivo, baboon. To be noted: for clearance / half-life / Vd: baboon, plasma, iv, 500 umol/kg, 0.5 mMol/Kg 15 minute i.v. bolus; for Vd: read-out: Volume of Distribution. The protocol: The pharmacokinetics of the αGal trisaccharide compositions and the αGal pentasaccharide compositions were determined by delivering to one baboon by 15 minute intravenous bolus, 0.5 mMol/Kg of one oligosaccharide and 48 hours later, delivering 0.5 mmol/Kg of the second oligosaccharide, and for a second baboon, delivering the oligosaccharides according to the same procedure, but in the reverse order.
Three Baboons were outfitted with indwelling venous and arterial catheters to the femoral vessels, and held in place with the aid of a jacket. Oligosaccharides were administered through the catheter in a 15 minute continuous infusion.
The clearance is used to calculate the infusion rate needed to maintain a desired drug concentration. The half-life describes how quickly concentrations diminish with time. Mathematical formulations known in the art were applied to estimate the pharmacokinetic parameters of the αGal trisaccharide and αGal pentasaccharide. […] Compared to other drugs, the volumes of distribution of these oligosaccharides are low, less than the extravascular water volume (<400 mL/kg). The clearance is typical of compounds eliminated by GFR (glomerular filtration rate).

[3] abbreviates: to attain 0.5 mM steady state serum concentration.
[4] abbreviates: to attain 1.0 mM steady state serum concentration.
Setting [5] is: to attain 2.0 mM steady state serum concentration.

By clearance is commonly meant the volume of plasma or blood freed of the substance per unit of time. Usually half-life stands for the time needed for the level to fall by half in the phase considered. Low values mean rapid decline, high ones slow decline.

As for `CC(=O)N[C@H]1[C@H](O[C@H]2[C@@H](O)[C@@H](CO)O[C@@H](O[C@H]3[C@H](O)[C@@H](O)C(O)O[C@@H]3CO)[C@@H]2O)O[C@H](CO)[C@@H](O[C@@H]2O[C@H](CO)[C@H](O)[C@H](O[C@H]3O[C@H](CO)[C@H](O)[C@H](O)[C@H]3O)[C@H]2O)[C@@H]1O` (stereo partly shown) [αGal pentasaccharide, Galα1-3Galβ1-4GlcNAcβ1-3Galβ1-4Glc], the “Onset of IgG, IgM and complement (C3) deposition at the endothelial surface” value in series [1] (first baboon) was 1.5 h. In series [1] (in vivo), the “Alteration in blood chemistry” value is recorded as “increase in creatinine phosphokinase” and the Hematology results was “unremarkable”. Moreover, the Xenograft histology result in series [1] (initial 3 hours of infusion, data not shown) is listed as “Essentially normal histology”. In series [1] (second baboon), the “Onset of IgG, IgM and complement (C3) deposition at the endothelial surface” value turned out to be 3 h. The “Xenograft heart beat during infusion” value in series [1] (two baboons, four hour infusion, result in words) was “an even beat was maintained for the duration of the four hour oligosaccharide infusion”. The “Time of xenograft excision after cessation of the 4 hour infusion” value in series [1] (two baboons, untreated pig hearts rejected in 5-10 minutes) was “more than 1 hour”. In addition, in series [2] (baboon 1003), the clearance worked out at 2.93 mL/min/kg, the half-life was determined as 47.3 min and the Vd came to 0.199 L/kg. Also, in series [2] (baboon 1015), the clearance turned out to be 3.97 mL/min/kg, the half-life is 40.2 min and the Vd worked out at 0.23 L/kg. In series [2] (setting [3]), the “Calculated continuous infusion, total amount” value (shortened to “Calculated continuous infusion”) is listed as 1.44 Kg/14 days; the Calculated loading dose was 4.12 g/20 Kg baboon; the “Calculated loading dose (bolus or 15 min infusion)” value was 206 mg/kg. In addition, in series [2] (setting [4]), the “Calculated continuous infusion” value is reported as 2.88 Kg/14 days; the Calculated loading dose is 8.24 g/20 Kg baboon; the “Calculated loading dose (bolus or 15 min infusion)” value is 412 mg/kg. Moreover, in series [2] (setting [5]), the “Calculated continuous infusion” value is given as 5.74 Kg/14 days; the Calculated loading dose is 16.48 g/20 Kg baboon; the “Calculated loading dose (bolus or 15 min infusion)” value was 824 mg/kg.
